According to paper PMC5218480 (PLoS ONE, 2017):

Test system: MV-4-11 cells
Test: Gene expression microarray analysis (Affymetrix PrimeView) and GSEA
Assay type: cell-based, human
Design: RFU PODN (11730768_x_at) / Fold change /veh PODN (11730768_x_at) / RFU LINC00158 (11744669_a_at) / Fold change /veh LINC00158 (11744669_a_at) / RFU DUSP10 (11751237_a_at) / Fold change /veh DUSP10 (11751237_a_at) / RFU ID3 (11757404_x_at) / Fold change /veh ID3 (11757404_x_at) / RFU PLEKHG5 (11737974_s_at) / Fold change /veh PLEKHG5 (11737974_s_at) / RFU LRRC4B (11730491_at) / Fold change /veh LRRC4B (11730491_at) / RFU GIMAP4 (11747438_a_at) / Fold change /veh GIMAP4 (11747438_a_at) / RFU KRT8 (11758183_x_at) / Fold change /veh KRT8 (11758183_x_at) / RFU CNN1 (11734310_a_at) / Fold change /veh CNN1 (11734310_a_at) / RFU VPS37D (11726825_at) / Fold change /veh VPS37D (11726825_at) / RFU C10orf10 (11716522_x_at) / Fold change /veh C10orf10 (11716522_x_at) / RFU KIR2DL2 /// KIR2DL4 /// KIR2DL5A /// KIR2DL5B /// KIR2DS1 /// KIR2DS2 /// KIR2DS3 /// KIR2DS4 /// KIR3DL3 /// KIR3DL3 /// KIR3DS1 (11738374_at) / Fold change /veh KIR2DL2 /// KIR2DL4 /// KIR2DL5A /// KIR2DL5B /// KIR2DS1 /// KIR2DS2 /// KIR2DS3 /// KIR2DS4 /// KIR3DL3 /// KIR3DL3 /// KIR3DS1 (11738374_at) / RFU C1QL1 (11718748_at) / Fold change /veh C1QL1 (11718748_at) / RFU TMPRSS4 (11747572_a_at) / Fold change /veh TMPRSS4 (11747572_a_at) / RFU HAMP (11756126_x_at) / Fold change /veh HAMP (11756126_x_at) / RFU RNFT2 (11725882_a_at) / Fold change /veh RNFT2 (11725882_a_at) / RFU NR4A2 (11747474_a_at) / Fold change /veh NR4A2 (11747474_a_at) / RFU ABCC12 (11746883_a_at) / Fold change /veh ABCC12 (11746883_a_at) / RFU TMEM136 (11760407_x_at) / Fold change /veh TMEM136 (11760407_x_at) / RFU CLDN22 /// WWC2 (11732394_at) / Fold change /veh CLDN22 /// WWC2 (11732394_at) / RFU HLA-DPB1 (11760878_x_at) / Fold change /veh HLA-DPB1 (11760878_x_at) / RFU SPINT1 (11716480_a_at) / Fold change /veh SPINT1 (11716480_a_at) / RFU GAP43 (11754022_s_at) / Fold change /veh GAP43 (11754022_s_at) / RFU A4GNT (11735810_at) / Fold change /veh A4GNT (11735810_at) / RFU PRB3 (11715151_x_at) / Fold change /veh PRB3 (11715151_x_at) / RFU TUBB4B (11761932_at) / Fold change /veh TUBB4B (11761932_at) / RFU CAPN14 (11732068_a_at) / Fold change /veh CAPN14 (11732068_a_at) / RFU TMCC2 (11721928_a_at) / Fold change /veh TMCC2 (11721928_a_at) / RFU IRGQ (11745062_a_at) / Fold change /veh IRGQ (11745062_a_at) / RFU FAM174B (11720279_a_at) / Fold change /veh FAM174B (11720279_a_at) / RFU TMPRSS4 (11748680_a_at) / Fold change /veh TMPRSS4 (11748680_a_at) / RFU FAM212B (11763350_a_at) / Fold change /veh FAM212B (11763350_a_at) / RFU PLEKHG5 (11743358_a_at) / Fold change /veh PLEKHG5 (11743358_a_at) / RFU ZSCAN30 (11745921_a_at) / Fold change /veh ZSCAN30 (11745921_a_at) / RFU CMKLR1 (11741424_a_at) / Fold change /veh CMKLR1 (11741424_a_at) / RFU LOC101060620 /// MAPK8IP1 (11723275_at) / Fold change /veh LOC101060620 /// MAPK8IP1 (11723275_at) / RFU SPTSSB (11747773_x_at) / Fold change /veh SPTSSB (11747773_x_at) / RFU PRSS12 (11739890_at) / Fold change /veh PRSS12 (11739890_at) / RFU BIN1 (11741810_x_at) / Fold change /veh BIN1 (11741810_x_at) / RFU WNT11 (11732464_a_at) / Fold change /veh WNT11 (11732464_a_at) / RFU C10orf10 (11716521_a_at) / Fold change /veh C10orf10 (11716521_a_at) / RFU C5orf56 (11738089_at) / Fold change /veh C5orf56 (11738089_at) / RFU CYB561 (11721691_x_at) / Fold change /veh CYB561 (11721691_x_at) / RFU ANKRD19P (11752326_a_at) / Fold change /veh ANKRD19P (11752326_a_at) / RFU OR2T12 /// OR2T33 /// OR2T8 (11738714_s_at) / Fold change /veh OR2T12 /// OR2T33 /// OR2T8 (11738714_s_at) / RFU VCAN (11748164_a_at) / Fold change /veh VCAN (11748164_a_at) / RFU JSRP1 (11732532_at) / Fold change /veh JSRP1 (11732532_at) / RFU KRTAP10-11 (11738290_x_at) / Fold change /veh KRTAP10-11 (11738290_x_at) / RFU MYO3A (11730013_a_at) / Fold change /veh MYO3A (11730013_a_at) / RFU EBF3 (11725865_a_at) / Fold change /veh EBF3 (11725865_a_at) / RFU CAMK2N1 (11719241_x_at) / Fold change /veh CAMK2N1 (11719241_x_at) / RFU C5orf56 (11738088_a_at) / Fold change /veh C5orf56 (11738088_a_at) / RFU OLFML3 (11715873_a_at) / Fold change /veh OLFML3 (11715873_a_at) / RFU LOC100653217 /// NTM (11731650_a_at) / Fold change /veh LOC100653217 /// NTM (11731650_a_at) / RFU MAPK11 (11762145_a_at) / Fold change /veh MAPK11 (11762145_a_at) / RFU FIZ1 (11724087_x_at) / Fold change /veh FIZ1 (11724087_x_at) / RFU OASL (11726364_x_at) / Fold change /veh OASL (11726364_x_at) / RFU SOX15 (11748057_x_at) / Fold change /veh SOX15 (11748057_x_at) / RFU CD79A (11719716_a_at) / Fold change /veh CD79A (11719716_a_at) / RFU HIST1H1D (11736915_at) / Fold change /veh HIST1H1D (11736915_at) / RFU CASKIN2 (11723855_a_at) / Fold change /veh CASKIN2 (11723855_a_at) / RFU LOC730098 (11760151_x_at) / Fold change /veh LOC730098 (11760151_x_at) / RFU OR4N2 (11742367_at) / Fold change /veh OR4N2 (11742367_at) / RFU PRRT2 (11749266_a_at) / Fold change /veh PRRT2 (11749266_a_at) / RFU SNX32 (11753110_a_at) / Fold change /veh SNX32 (11753110_a_at) / RFU CDHR5 (11726645_a_at) / Fold change /veh CDHR5 (11726645_a_at) / RFU RCAN1 (11760418_a_at) / Fold change /veh RCAN1 (11760418_a_at) / RFU FAM167A (11723789_a_at) / Fold change /veh FAM167A (11723789_a_at) / RFU FAM26E (11764081_at) / Fold change /veh FAM26E (11764081_at) / RFU ISYNA1 (11749810_s_at) / Fold change /veh ISYNA1 (11749810_s_at) / RFU ACY1 (11761880_at) / Fold change /veh ACY1 (11761880_at) / RFU 11764098_at / Fold change /veh 11764098_at / RFU SAMD14 (11745864_x_at) / Fold change /veh SAMD14 (11745864_x_at) / RFU NPB (11741838_a_at) / Fold change /veh NPB (11741838_a_at) / RFU TMPRSS6 (11731388_a_at) / Fold change /veh TMPRSS6 (11731388_a_at) / RFU KRTAP10-2 (11738614_at) / Fold change /veh KRTAP10-2 (11738614_at) / RFU ARHGAP8 /// PRR5-ARHGAP8 (11727945_x_at) / Fold change /veh ARHGAP8 /// PRR5-ARHGAP8 (11727945_x_at) / RFU KRTAP5-7 /// NADSYN1 (11734609_at) / Fold change /veh KRTAP5-7 /// NADSYN1 (11734609_at) / RFU RASL12 (11751679_a_at) / Fold change /veh RASL12 (11751679_a_at) / RFU CDKN2B (11736163_a_at) / Fold change /veh CDKN2B (11736163_a_at) / RFU PRF1 (11729649_at) / Fold change /veh PRF1 (11729649_at) / RFU, ZNF638 /// ZNF638-IT1 / Fold change vs veh, ZNF638 /// ZNF638-IT1 / RFU, PANK3 / Fold change vs veh, PANK3 / RFU, SH3YL1 / Fold change vs veh, SH3YL1 / RFU, ZEB2 / Fold change vs veh, ZEB2 / RFU, NRIP1 / Fold change vs veh, NRIP1 / RFU, PTTG1IP / Fold change vs veh, PTTG1IP / RFU, CAPN2 / Fold change vs veh, CAPN2 / RFU, MED14 / Fold change vs veh, MED14 / RFU, SNORA58 / Fold change vs veh, SNORA58 / RFU, C1orf63 / Fold change vs veh, C1orf63 / RFU, LRRFIP1 / Fold change vs veh, LRRFIP1 / RFU, NDUFAF7 / Fold change vs veh, NDUFAF7 / RFU, SLC12A2 / Fold change vs veh, SLC12A2 / RFU, IBTK / Fold change vs veh, IBTK / RFU, ESF1 / Fold change vs veh, ESF1 / Fold change vs veh, TMEM50B / RFU, TAOK1 / Fold change vs veh, TAOK1 / RFU, ACBD3 / Fold change vs veh, ACBD3 / RFU, TMA16 / Fold change vs veh, TMA16 / RFU, RWDD3 / Fold change vs veh, RWDD3 / RFU, BCAT1 / Fold change vs veh, BCAT1 / RFU, EDEM3 / Fold change vs veh, EDEM3 / RFU, TMEM33 / Fold change vs veh, TMEM33 / RFU, WDR75 / Fold change vs veh, WDR75 / RFU, AHCTF1 / Fold change vs veh, AHCTF1 / RFU, TFRC / Fold change vs veh, TFRC / RFU, ZDHHC17 / Fold change vs veh, ZDHHC17 / RFU, NOM1 / Fold change vs veh, NOM1 / RFU, ARL8B / Fold change vs veh, ARL8B / RFU, ZBTB11 / Fold change vs veh, ZBTB11 / RFU, TAMM41 / Fold change vs veh, TAMM41 / RFU, KIAA1704 /// LOC100996395 / Fold change vs veh, KIAA1704 /// LOC100996395 / RFU, ING1 / Fold change vs veh, ING1 / RFU, TRMT61B / Fold change vs veh, TRMT61B / RFU, FUBP3 / Fold change vs veh, FUBP3 / RFU, TP53 / Fold change vs veh, TP53 / RFU, TNKS2 / Fold change vs veh, TNKS2 / RFU, ZFP14 / Fold change vs veh, ZFP14 / RFU, ACTR2 / Fold change vs veh, ACTR2 / RFU, PPP3R1 / Fold change vs veh, PPP3R1 / RFU, PIK3R1 / Fold change vs veh, PIK3R1 / RFU, HNRNPA1 / Fold change vs veh, HNRNPA1 / RFU, RNF170 / Fold change vs veh, RNF170 / RFU, ZNF28 / Fold change vs veh, ZNF28 / RFU, RNGTT / Fold change vs veh, RNGTT / RFU, OGT / Fold change vs veh, OGT / RFU, BRD1 / Fold change vs veh, BRD1 / RFU, MARS / Fold change vs veh, MARS / RFU, ZNF655 / Fold change vs veh, ZNF655 / RFU, FAHD1 / Fold change vs veh, FAHD1 / RFU, BDP1 / Fold change vs veh, BDP1 / RFU, LRRCC1 / Fold change vs veh, LRRCC1 / RFU, ARID1A / Fold change vs veh, ARID1A / RFU, ZNF146 / Fold change vs veh, ZNF146 / RFU, ZNF330 / Fold change vs veh, ZNF330 / RFU, GPN3 / Fold change vs veh, GPN3 / RFU, C9orf123 / Fold change vs veh, C9orf123 / RFU, N4BP2L2 / Fold change vs veh, N4BP2L2 / RFU, ARFIP1 / Fold change vs veh, ARFIP1 / RFU, FAM179B / Fold change vs veh, FAM179B / RFU, BCL10 / Fold change vs veh, BCL10 / RFU, UHRF1BP1L / Fold change vs veh, UHRF1BP1L / RFU, BET1 / Fold change vs veh, BET1 / RFU, CNOT2 / Fold change vs veh, CNOT2 / RFU, ZNF268 / Fold change vs veh, ZNF268 / Fold change vs veh, ZNF507 / RFU, DGCR2 / Fold change vs veh, DGCR2 / RFU, WDSUB1 / Fold change vs veh, WDSUB1 / Fold change vs veh, HSP90B1 /// MIR3652 / RFU, ADSS / Fold change vs veh, ADSS / RFU, GK / Fold change vs veh, GK / RFU, ZNF148 / Fold change vs veh, ZNF148 / RFU, TAF9 / Fold change vs veh, TAF9 / RFU, SLC1A5 / Fold change vs veh, SLC1A5 / RFU, SLMO2 / Fold change vs veh, SLMO2 / RFU, ABCC4 / Fold change vs veh, ABCC4 / RFU, LOC101060439 /// RAP1B / Fold change vs veh, LOC101060439 /// RAP1B / RFU, RFX7 / Fold change vs veh, RFX7 / RFU, GTPBP10 / Fold change vs veh, GTPBP10 / RFU, CNEP1R1 / Fold change vs veh, CNEP1R1 / RFU, BIVM-ERCC5 /// ERCC5 / Fold change vs veh, BIVM-ERCC5 /// ERCC5 / RFU, ILF3 / Fold change vs veh, ILF3 / RFU 11762660_at / Fold change /veh 11762660_at / RFU VCAN (11757783_s_at) / Fold change /veh VCAN (11757783_s_at) / RFU DDX43 (11728927_at) / Fold change /veh DDX43 (11728927_at) / RFU KRT8 (11758188_x_at) / Fold change /veh KRT8 (11758188_x_at) / RFU NKD1 (11759106_at) / Fold change /veh NKD1 (11759106_at) / RFU SRD5A1 (11742802_a_at) / Fold change /veh SRD5A1 (11742802_a_at) / RFU TPSAB1 /// TPSB2 (11721975_s_at) / Fold change /veh TPSAB1 /// TPSB2 (11721975_s_at) / RFU GSTM3 (11746129_a_at) / Fold change /veh GSTM3 (11746129_a_at) / RFU IL23R (11737362_x_at) / Fold change /veh IL23R (11737362_x_at) / RFU TMEM51 (11727254_a_at) / Fold change /veh TMEM51 (11727254_a_at) / RFU PIWIL2 (11732686_x_at) / Fold change /veh PIWIL2 (11732686_x_at) / RFU ORM1 (11744905_x_at) / Fold change /veh ORM1 (11744905_x_at) / RFU CCDC152 (11743942_at) / Fold change /veh CCDC152 (11743942_at) / RFU ECM1 (11717891_a_at) / Fold change /veh ECM1 (11717891_a_at) / RFU IL23R (11748794_a_at) / Fold change /veh IL23R (11748794_a_at) / RFU TNFAIP8L3 (11732012_x_at) / Fold change /veh TNFAIP8L3 (11732012_x_at) / RFU MBOAT4 (11741988_at) / Fold change /veh MBOAT4 (11741988_at) / RFU 11764193_at / Fold change /veh 11764193_at / RFU TMEM53 (11763286_at) / Fold change /veh TMEM53 (11763286_at) / RFU MAGEB2 (11727129_at) / Fold change /veh MAGEB2 (11727129_at) / RFU TMEM200A (11744735_a_at) / Fold change /veh TMEM200A (11744735_a_at) / RFU CCDC152 (11751479_a_at) / Fold change /veh CCDC152 (11751479_a_at) / RFU FAM211A (11726209_a_at) / Fold change /veh FAM211A (11726209_a_at) / RFU RGS16 (11746705_a_at) / Fold change /veh RGS16 (11746705_a_at) / RFU VCAN (11755009_s_at) / Fold change /veh VCAN (11755009_s_at) / RFU RHOB (11743442_s_at) / Fold change /veh RHOB (11743442_s_at) / RFU RGS16 (11720943_a_at) / Fold change /veh RGS16 (11720943_a_at) / RFU RGS16 (11720944_at) / Fold change /veh RGS16 (11720944_at) / RFU, VPS4B / Fold change vs veh, VPS4B / RFU, CREB1 / Fold change vs veh, CREB1 / RFU, DNAJC13 / Fold change vs veh, DNAJC13 / RFU, GNAQ / Fold change vs veh, GNAQ / RFU, CDK5R1 / Fold change vs veh, CDK5R1 / RFU, ZRANB3 / Fold change vs veh, ZRANB3 / RFU, CUL4A / Fold change vs veh, CUL4A / RFU, CCNY / Fold change vs veh, CCNY / RFU, UFL1 / Fold change vs veh, UFL1 / RFU, COG3 / Fold change vs veh, COG3 / RFU, DIAPH2 / Fold change vs veh, DIAPH2 / RFU, SKA2 / Fold change vs veh, SKA2 / RFU, AFF3 / Fold change vs veh, AFF3 / RFU, LMF1 / Fold change vs veh, LMF1 / RFU, IPO11 / Fold change vs veh, IPO11 / RFU, DFFB / Fold change vs veh, DFFB / RFU, FOXP1 / Fold change vs veh, FOXP1 / RFU, CARD8 / Fold change vs veh, CARD8 / RFU, STRN3 / Fold change vs veh, STRN3 / RFU, ADK / Fold change vs veh, ADK / RFU, RASSF2 / Fold change vs veh, RASSF2 / RFU, WIPF1 / Fold change vs veh, WIPF1 / RFU, LARP1B / Fold change vs veh, LARP1B / RFU, RASA1 / Fold change vs veh, RASA1 / RFU, RB1 / Fold change vs veh, RB1 / RFU, PPFIA1 / Fold change vs veh, PPFIA1 / RFU, MAT2A / Fold change vs veh, MAT2A / RFU, CCT5 / Fold change vs veh, CCT5 / RFU, WDR92 / Fold change vs veh, WDR92 / RFU, CUX1 / Fold change vs veh, CUX1 / RFU, TTC7A / Fold change vs veh, TTC7A / RFU, TMEM135 / Fold change vs veh, TMEM135 / RFU, DEPTOR / Fold change vs veh, DEPTOR / RFU, CPM / Fold change vs veh, CPM / RFU, DNAJB6 / Fold change vs veh, DNAJB6 / RFU, CACNA2D3 / Fold change vs veh, CACNA2D3 / RFU, DTX4 / Fold change vs veh, DTX4 / RFU, TFCP2 / Fold change vs veh, TFCP2 / RFU, GMCL1 /// GMCL1P1 / Fold change vs veh, GMCL1 /// GMCL1P1 / RFU, AEBP2 / Fold change vs veh, AEBP2 / RFU, SNHG1 /// SNORD22 /// SNORD25 /// SNORD26 /// SNORD27 /// SNORD28 /// SNORD29 /// SNORD31 / Fold change vs veh, SNHG1 /// SNORD22 /// SNORD25 /// SNORD26 /// SNORD27 /// SNORD28 /// SNORD29 /// SNORD31 / Fold change (Aza/veh), C12orf56 (ProbeSet 11735607_a_at) / Fold change (ACY-1035/veh), C12orf56 (ProbeSet 11735607_a_at) / Fold change (Aza/veh), FGFR1OP (ProbeSet 11751329_s_at) / Fold change (ACY-1035/veh), FGFR1OP (ProbeSet 11751329_s_at) / Fold change (Aza/veh), VPS36 (ProbeSet 11739960_a_at) / Fold change (ACY-1035/veh), VPS36 (ProbeSet 11739960_a_at) / RFU SYPL1 (11715823_x_at) / Fold change /veh SYPL1 (11715823_x_at) / RFU IGFBP7 (11715501_s_at) / Fold change /veh IGFBP7 (11715501_s_at) / RFU REEP3 (11722064_at) / Fold change /veh REEP3 (11722064_at) / RFU IGLL1 (11728026_x_at) / Fold change /veh IGLL1 (11728026_x_at): dose or concentration left out as unconfirmed
Settings: MV-4-11 cells, 48 hours

Structure (SMILES): Nc1ccc(-c2cccs2)cc1NC(=O)c1ccc2c(c1)cc(C1CC1)n2CCN1CCOCC1 [ACY-1035]
- RFU KRTAP5-7 /// NADSYN1 (11734609_at): 11.39 RFU
